Measured values reported in US11603386B2, “Insect, tick, and mite repellent derived from Xenorhabdus budapestensis” (Wisconsin Alumni Research Foundation, priority 2017, dated 2023).

System: Aedes aegypti
Experiment: Repellent screening assay (in vitro membrane feeding, Hemotek feeder, treated cloth)
Assay type: in vivo
Conditions: for RD90: concentration producing 90% reduction in feeding rate, 30 min exposure
Text: FIG. 1 is a photograph of the equipment used for the repellent screening assay. The apparatus includes a temperature-controlled feeder unit which includes a collagen casing covered by conventional cheese cloth. The collagen mimics the surface of human and is in contact with a heating element (not seen in FIG. 1) whose temperature is controlled by the temperature controller. The collagen pad is saturated with a solution that mimics human blood. The compound whose repellency is to be tested is applied to the cheese cloth, which is then affixed to the collagen pad. In the main panel in FIG. 1, the feeder unit is shown in its operational position, on top of a container in which are mosquitos (or any other arthropod) that is to be repelled. […] In practice, a known amount of putative repellent is applied to the cheese cloth. Unfed mosquitos, for example, are within the mosquito container. The feeder unit is then placed on top of the mosquito container for a pre-determined amount of time. The mosquitos are then sacrificed and examined to determine how many mosquitos fed (i.e., were not repelled) and how many mosquitos were still unfed after the test (i.e., were repelled). In this fashion, very reliable data can be generated regarding the effectiveness of any putative repellent composition. See Katritzky, A. R., et al. (2008) Proc. Nat. Acad. Sci. (US), 105:7359-7364 and Katritzky, A. R., et al. (2010) Journal of Med. Entomol., 47:924-938.
Unfed mosquitos are then used as test subjects. After the time course of each experiment is completed, the mosquitos are sacrificed and examined to determine how many mosquitos have fed (and thus were not repelled) versus how many mosquitos remain unfed (and thus were repelled). Fed versus unfed mosquitos can be separated by simple visual examination. Fed mosquites have an engorged, distended appearance. Representative images depicting the appearance of fed vs unfed mosquitoes resulting from the repellent screening assays is shown in FIG. 7. Images clearly show engorged abdomens and food red dye when mosquitoes were exposed to water only as negative repellent controls (FIG. 7, panel A).
A colony of the Aedes aegypti Liverpool strain was maintained at the University of Wisconsin according to standard procedures reported previously (Paskewitz et al., 1999; Kajla et al., 2010, Christensen et al., 1984). Anopheles gambiae and Culex pipiens (Iowa strain) were reared according to established protocols (Aliota et al., 2016) in a 100 square feet walk-in environmental chamber maintained at 26.5±0.5° C. and 80±5% relative humidity. For egg production, adult female mosquitoes were offered defibrinated rabbit blood (HemoStat Laboratories, Dixon, Calif., USA) via a Hemotek-brand membrane feeding system (Discovery Workshops, Accrington, UK) once a week. Adult mosquitoes were maintained on a constant exposure to 10% sucrose on cotton balls and larvae were fed Tetramin®-brand fish food. For repellent assays, nulliparous, mated, twenty 7-10 days old adult female mosquitoes were separated in screened pint-size paper containers (Neptune Paper Products, Fort Lee, N.J., USA). Mosquitoes were starved for 12-16 hours before the repellent assay. Mosquitoes were exposed to repellent compounds for 30 min at room temperature (incandescent light, 25-26° C.) between 10:00 am and 4:00 pm (see below for repellent assay set-up).
A Hemotek-brand feeding system was used to keep the feeding solution at a constant temperature set at 37° C. […]

Row | SMILES | RE90 (relative efficacy) | RD90 | Feeding (engorgement / red dye in abdomen) (1%, positive control, FIG. 7 panel B)
1 | CCC(C)OC(=O)N1CCCCC1CCO (centres unmarked) [Picaridin] | 0.37 | 0.498 Percent concentration (v/v) | 
2 | CCN(CC)C(=O)c1cccc(C)c1 [DEET, N,N-diethyl-3-methylbenzamide] | 1 | 0.188 Percent concentration (v/v) | no feeding occurred
